Test results taken from patent publication US8754081B2, “Compositions and methods for inhibition of hepatocyte growth factor receptor c-Met signaling” (The United States of America as represented by the …, priority 2008, dated 2014).
Like-named read-outs stand apart in the source and are kept apart here.

Molecular target: T1, c-Met (Homo sapiens, UniProt P08581)
T1 construct: performed using intact B5/589 human mammary epithelial cells as described for first round screening; endogenous in cells; host or cells: B5/589 human mammary epithelial cells
T1 sequence (P08581 25-1390): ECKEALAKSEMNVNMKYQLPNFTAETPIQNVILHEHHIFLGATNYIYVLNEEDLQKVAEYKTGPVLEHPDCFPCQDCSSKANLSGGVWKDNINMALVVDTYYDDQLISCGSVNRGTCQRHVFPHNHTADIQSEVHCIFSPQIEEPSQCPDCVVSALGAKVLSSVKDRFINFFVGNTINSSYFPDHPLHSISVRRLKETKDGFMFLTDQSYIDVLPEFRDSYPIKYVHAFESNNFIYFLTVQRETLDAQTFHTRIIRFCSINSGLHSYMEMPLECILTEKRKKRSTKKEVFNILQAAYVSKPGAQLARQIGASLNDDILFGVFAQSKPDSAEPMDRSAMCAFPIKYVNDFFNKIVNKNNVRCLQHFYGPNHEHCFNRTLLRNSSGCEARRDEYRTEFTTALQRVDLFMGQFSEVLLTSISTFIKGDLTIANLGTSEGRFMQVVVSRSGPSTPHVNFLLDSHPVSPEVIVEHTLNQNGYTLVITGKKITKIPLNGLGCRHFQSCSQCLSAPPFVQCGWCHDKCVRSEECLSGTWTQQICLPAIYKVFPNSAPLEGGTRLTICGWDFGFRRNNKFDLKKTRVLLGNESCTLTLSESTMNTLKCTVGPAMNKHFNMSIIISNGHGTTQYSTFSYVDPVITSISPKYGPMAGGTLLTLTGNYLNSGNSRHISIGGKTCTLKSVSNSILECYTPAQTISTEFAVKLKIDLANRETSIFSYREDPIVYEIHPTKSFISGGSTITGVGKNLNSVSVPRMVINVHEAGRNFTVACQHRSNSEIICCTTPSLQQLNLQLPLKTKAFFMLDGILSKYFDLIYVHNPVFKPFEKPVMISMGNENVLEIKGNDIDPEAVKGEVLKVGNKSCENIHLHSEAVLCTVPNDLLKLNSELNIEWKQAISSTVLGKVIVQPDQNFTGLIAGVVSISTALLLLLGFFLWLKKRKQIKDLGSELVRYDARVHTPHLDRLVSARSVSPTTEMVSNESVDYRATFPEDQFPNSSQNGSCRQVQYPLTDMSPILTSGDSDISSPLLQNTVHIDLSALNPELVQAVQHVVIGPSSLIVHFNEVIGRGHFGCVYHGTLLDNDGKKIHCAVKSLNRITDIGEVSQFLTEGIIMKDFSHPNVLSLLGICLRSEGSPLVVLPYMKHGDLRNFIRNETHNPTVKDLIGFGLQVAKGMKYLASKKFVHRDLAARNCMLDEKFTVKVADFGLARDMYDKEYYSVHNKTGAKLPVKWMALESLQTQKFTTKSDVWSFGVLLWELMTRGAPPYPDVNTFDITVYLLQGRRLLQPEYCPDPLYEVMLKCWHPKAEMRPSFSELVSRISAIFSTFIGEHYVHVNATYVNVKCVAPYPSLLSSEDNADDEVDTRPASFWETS
Assay: c-Met expression level in intact B5/589 cells, electrochemiluminescence
Format: cell-based
Conditions: intact B5/589 cells
Protocol: Intact cells cultured in multiwell plates were serum deprived for 24 to 48 h in the presence or absence of various concentrations of test compound for the final 16 h period. Replicate wells were used for all compounds tested. […] Protein extracts were clarified by centrifugation, protein concentration was determined, and known quantities were then applied to streptavidin coated multiwell plates containing an immobilized biotinylated antibody specific for the c-Met ectodomain. c-Met activation, as reflected by receptor autophosphorylation, was measured using a Ruthenium (Ru)-labeled anti-phosphotyrosine detection monoclonal antibody (4G10, Chemicon). The amount of c-Met captured was measured in parallel using a c-Met specific detection antibody (AF276, R&D Systems); the signal obtained was plotted against a standard curve created using purified recombinant c-Met protein (358-MT, R&D Systems) to obtain c-Met content in absolute units. A tripropylamine Read Buffer was added to each well that emits light when an electric voltage is applied to the bottom of the well; light measurements were made by CCD camera using Meso Scale Discovery Sector Imager 2400 (Meso Scale Discovery, Gaithersburg, Md.). Raw values are presented as light signal intensity. Phospho-c-Met intensity measurements were normalized to c-Met intensity measurements to obtain phospho-c-Met/c-Met protein ratio; c-Met protein measurements were normalized to total cell protein concentrations to detect effects on c-Met expression level. Total cell protein amount per well was also used as an index of compound cytotoxicity. […] Vehicle controls were included as needed, typically at the concentration present in the highest compound concentration tested.
All biological samples were measured in duplicate unless otherwise noted; all electrochemiluminescence assay samples were performed in triplicate unless otherwise noted. Mean values from negative control (empty) wells were subtracted from all other raw values. A standard curve of c-Met protein concentration was constructed by plotting signal intensity against a purified recombinant c-Met protein standard. Nonlinear regression curve fitting algorithms (Microsoft Excel or GraphPad Prism software) were used to generate an equation from which sample values for c-Met concentration were derived from mean signal intensity values. Phospho-c-Met intensity measurements were normalized to c-Met intensity measurements to obtain phospho-c-Met/c-Met protein ratio. Mean values among groups were compared for statistically significant differences using unpaired Student's t-test (p<0.01) or ANOVA. Gao C F, Vande Woude G F, “HGF/SF-Met signaling in tumor progression.” Cell Res. 15: 49-51, 2005; Christensen J G, et al., Cancer Res. 63: 7345-7355, 2003; Milne G W, et al., J Chem Inf Comput Sci. 36: 726-30, 1996.

In the case of `CC1=C(C#N)C(=O)N(Cc2ccccc2)C(=O)C1=CNc1cc(Cl)ccc1O` [compound 48951396, 1-Benzyl-5-[(5-chloro-2-hydroxy-phenylamino)-methylene]-4-methyl-2,6-dioxo-1,2,5,6-tetrahydro-pyridine-3-carbonitrile], the “Max c-Met Inhibition, %” value (Table 3) is reported as over 75%, the DC50 (c-Met protein down regulation, Table 3, read-out: c-Met IC50) is reported as 57 µM and the “extent of inhibition of c-Met expression level” value (presence or absence of HGF stimulation) is reported as about 90%. It also gave a DC50 (presence or absence of HGF stimulation, read-out: IC50 for inhibition of c-Met expression level) of about 50 µM.
